For 14 compounds, Activity and inhibition results are on record in ChEMBL document CHEMBL5532657, “Serendipitous discovery of Class I HDAC inhibitors from rational design of molecular glue degraders targeting HDAC” (Eur J Med Chem, 2024).

Calls of active or inactive are those of the source. The calls are words filed in the database; no cut-off is given here.

One experiment concerns HeLa. Nature of the experiment: Antiproliferative activity against human HeLa cells assessed as cell growth inhibition at 5 uM incubated for 48 hrs by CCK-8 assay. The experiment is classed as functional, cell-based.
Experiment [1] concerns the target Histone deacetylase (Homo sapiens) (UniProt Q13547+O15379+Q9UBN7+Q92769+Q9UQL6+Q8WUI4+Q9BY41+Q96DB2+P56524+Q9UKV0+Q969S8). Briefly: Inhibition of HDAC in human RS4-11 cells assessed as upregulation of histone H3 acetylation by Western blot assay. The class given is cell-based. (A western blot detects proteins with antibodies after separation by electrophoresis.)

The subject of the next experiment is HCT-116. Briefly: Antiproliferative activity against human HCT-116 cells assessed as cell growth inhibition at 5 uM incubated for 48 hrs by CCK-8 assay. The class given is functional, cell-based.
Experiment [2] deals with T1, Protein deacetylase HDAC6 (Homo sapiens) (UniProt Q9UBN7).
T1 sequence (whole entry): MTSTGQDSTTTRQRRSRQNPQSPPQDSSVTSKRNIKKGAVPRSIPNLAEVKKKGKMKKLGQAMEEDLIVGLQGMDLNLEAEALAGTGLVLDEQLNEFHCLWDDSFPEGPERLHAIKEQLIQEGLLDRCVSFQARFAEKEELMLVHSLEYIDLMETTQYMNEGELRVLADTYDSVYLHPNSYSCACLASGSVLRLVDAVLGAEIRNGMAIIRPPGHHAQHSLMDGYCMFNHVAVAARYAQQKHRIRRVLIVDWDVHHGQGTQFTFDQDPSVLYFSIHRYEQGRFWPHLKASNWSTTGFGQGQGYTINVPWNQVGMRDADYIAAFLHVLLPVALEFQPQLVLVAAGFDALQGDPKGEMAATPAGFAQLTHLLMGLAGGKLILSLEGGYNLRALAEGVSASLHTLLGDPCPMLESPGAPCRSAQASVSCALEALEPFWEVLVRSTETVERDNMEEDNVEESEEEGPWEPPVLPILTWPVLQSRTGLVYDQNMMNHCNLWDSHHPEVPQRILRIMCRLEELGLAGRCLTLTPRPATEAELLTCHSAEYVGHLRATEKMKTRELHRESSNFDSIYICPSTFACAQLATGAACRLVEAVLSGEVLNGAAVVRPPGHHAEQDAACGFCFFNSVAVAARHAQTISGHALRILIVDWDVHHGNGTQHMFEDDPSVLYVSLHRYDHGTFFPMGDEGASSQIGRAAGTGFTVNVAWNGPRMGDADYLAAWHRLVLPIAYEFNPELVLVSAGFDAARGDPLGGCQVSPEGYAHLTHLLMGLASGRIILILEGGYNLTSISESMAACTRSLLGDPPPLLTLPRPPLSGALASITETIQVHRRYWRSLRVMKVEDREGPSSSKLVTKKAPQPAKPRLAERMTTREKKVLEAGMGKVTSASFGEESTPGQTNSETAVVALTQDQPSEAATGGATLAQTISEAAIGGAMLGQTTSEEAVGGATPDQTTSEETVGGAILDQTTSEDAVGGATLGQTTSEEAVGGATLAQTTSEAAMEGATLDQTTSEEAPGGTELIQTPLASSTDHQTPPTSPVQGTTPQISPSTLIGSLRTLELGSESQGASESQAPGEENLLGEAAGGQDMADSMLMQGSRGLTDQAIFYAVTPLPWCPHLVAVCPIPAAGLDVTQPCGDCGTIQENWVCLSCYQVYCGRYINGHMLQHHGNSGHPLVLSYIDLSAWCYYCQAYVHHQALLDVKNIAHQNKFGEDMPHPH
Briefly: Inhibition of HDAC6 in human RS4-11 cells assessed as effect on alpha-tubulin acetylation by Western blot assay. The class given is cell-based.

The next experiment concerns the target Histone deacetylase 1 (Homo sapiens, UniProt Q13547). Nature of the experiment: Induction of HDAC1 degradation in human RS4-11 cells at 0.5 to 10 uM incubated for 12 hrs by Western blotting analysis. The class given is cell-based. The note with it: dose 0.5-10 µM.
A further experiment concerns A549. Briefly: Antiproliferative activity against human A549 cells assessed as cell growth inhibition at 5 uM incubated for 48 hrs by CCK-8 assay. The class given is functional, cell-based.
Experiment [3] deals with T1, Protein deacetylase HDAC6 (Homo sapiens). Nature of the experiment: Induction of HDAC6 degradation in human RS4-11 cells at 0.5 to 10 uM incubated for 12 hrs by Western blotting analysis. The note with it: dose 0.5-10 µM. The experiment is classed as cell-based.

Sequence of Histone deacetylase 1 (Q13547 whole entry): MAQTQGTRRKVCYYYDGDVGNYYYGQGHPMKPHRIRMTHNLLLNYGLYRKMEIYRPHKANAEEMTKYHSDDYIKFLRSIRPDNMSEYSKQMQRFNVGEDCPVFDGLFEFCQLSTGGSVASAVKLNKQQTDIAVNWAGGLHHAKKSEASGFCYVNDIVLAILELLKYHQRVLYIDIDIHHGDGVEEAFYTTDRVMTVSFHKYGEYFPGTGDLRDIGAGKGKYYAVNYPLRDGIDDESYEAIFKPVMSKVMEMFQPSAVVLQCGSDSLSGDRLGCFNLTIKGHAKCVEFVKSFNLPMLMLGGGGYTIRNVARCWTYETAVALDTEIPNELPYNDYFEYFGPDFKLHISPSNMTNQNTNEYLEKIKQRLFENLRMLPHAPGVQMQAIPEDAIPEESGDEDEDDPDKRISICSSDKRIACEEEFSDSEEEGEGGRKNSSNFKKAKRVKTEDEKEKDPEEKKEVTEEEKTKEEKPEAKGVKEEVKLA

`O=C(CCCCCCNc1cccc2c1C(=O)N(C1CCC(=O)NC1=O)C2=O)NO` (configuration not stated): the outcome (in the experiment with HeLa; in the experiment on HCT-116; in experiment [2]; at Histone deacetylase 1; with A549; in experiment [3]) was inactive. Further, the inhibition result in experiment [1] was “Active”.
With `Nc1cc(F)ccc1NC(=O)c1cn(CCOCCOCCOCCNc2cccc3c2C(=O)N(C2CCC(=O)NC2=O)C3=O)nn1` (configuration not stated), the outcome (in the experiment on HeLa; with HCT-116; on Histone deacetylase 1; with A549; in experiment [3]) was inactive.
On to `O=C(CCCCCCCNc1cccc2c1C(=O)N(C1CCC(=O)NC1=O)C2=O)NO` (configuration not stated), for which the result (in the experiment with HeLa; in the experiment on HCT-116; on Histone deacetylase 1; in the experiment with A549; in experiment [3]) was inactive.
Consider `Nc1cc(F)ccc1NC(=O)CCCCNc1cccc2c1C(=O)N(C1CCC(=O)NC1=O)C2=O` (configuration not stated), for which the result (in the experiment with HeLa; with HCT-116; on Histone deacetylase 1; with A549; in experiment [3]) was inactive.
Turning to `O=C1CCC(N2C(=O)c3cccc(NCCOCCOCCn4cc(C(=O)NCCS)nn4)c3C2=O)C(=O)N1` (configuration not stated), the outcome (in the experiment on HeLa; with HCT-116; at Histone deacetylase 1; in the experiment with A549; in experiment [3]) was inactive.
`Nc1cc(F)ccc1NC(=O)CCCNc1cccc2c1C(=O)N(C1CCC(=O)NC1=O)C2=O` (configuration not stated): the outcome (with HeLa; in the experiment with HCT-116; on Histone deacetylase 1; in the experiment with A549; in experiment [3]) was inactive.
For `O=C1CCC(N2C(=O)c3cccc(NCCOCCOCCn4cc(C(=O)NO)nn4)c3C2=O)C(=O)N1` (configuration not stated), the result (in the experiment on HeLa; with HCT-116; on Histone deacetylase 1; in the experiment with A549; in experiment [3]) was inactive.
Consider `Nc1ccccc1NC(=O)c1cn(CCOCCOCCNc2cccc3c2C(=O)N(C2CCC(=O)NC2=O)C3=O)nn1` (configuration not stated), for which the outcome (in the experiment on HeLa; in the experiment on HCT-116; at Histone deacetylase 1; with A549; in experiment [3]) was inactive.
On to `CCCNNC(=O)c1ccc(CNc2cccc3c2C(=O)N(C2CCC(=O)NC2=O)C3=O)cc1` (configuration not stated), for which the result (in the experiment with HeLa; in the experiment on HCT-116; on Histone deacetylase 1; with A549; in experiment [3]) was inactive.
For the compound `O=C(CCCCCCCNc1cccc2c1C(=O)N(C1CCC(=O)NC1=O)C2=O)NCCS` (configuration not stated), the result (with HeLa; in the experiment with HCT-116; at Histone deacetylase 1; with A549; in experiment [3]) was inactive.
Turning to `O=C(CCCNc1cccc2c1C(=O)N(C1CCC(=O)NC1=O)C2=O)NO` (configuration not stated), the result (in the experiment on HeLa; in the experiment on HCT-116; at Histone deacetylase 1; in the experiment with A549; in experiment [3]) was inactive.
`O=C1CCC(N2C(=O)c3cccc(NCCOCCOCCOCCn4cc(C(=O)NO)nn4)c3C2=O)C(=O)N1` (configuration not stated): the result (in the experiment on HeLa; in the experiment with HCT-116; at Histone deacetylase 1; with A549; in experiment [3]) was inactive.
Take `Nc1ccccc1NC(=O)CCCCCCNc1cccc2c1C(=O)N(C1CCC(=O)NC1=O)C2=O` (configuration not stated): the result (with HeLa; in the experiment on HCT-116; at Histone deacetylase 1; in the experiment with A549; in experiment [3]) was inactive.
For the compound `O=C1CCC(N2C(=O)c3cccc(NCc4ccc(C(=O)NO)cc4)c3C2=O)C(=O)N1` (configuration not stated), the outcome (in the experiment with HeLa; in the experiment on HCT-116; on Histone deacetylase 1; with A549; in experiment [3]) was inactive.
